The values that follow come from US20260273020A1, “OBESTATIN FOR USE AS ANTINEOPLASTIC AGENT IN THE TREATMENT OF PANCREATIC CANCER” (SERVIZO GALEGO DE SAÚDE, priority 2023, published 2026).

The test system of the assay is Ki67 positive proliferative cells. Put plainly: Ki67 immunohistochemistry of pancreatic tumours. In kind it is in vivo, C57BL/6J mice. The conditions noted are these: tumour area; obestatin 500 nmol/Kg/72 h. The protocol: FIG. 4. (A) Analysis and quantification of Ki67 positive proliferative cells by immunohistochemistry in the pancreatic tumors of C57BL/6J mice (n=4) orthotopically injected with KPC FC1242 cells and treated with vehicle [NaCl, 0.9% (w/v)] or obestatin (500 nmol/Kg/72 h). Magnification: 4×. (B) Immunoblot analysis of pERK1/2(T202/Y204), ERK1/2, pAkt(S473), and Akt in tumoral pancreatic tissue. Results are expressed as fold of control of the non-treated injected mice [control; mean±SE (*, P<0.05)].
Mice were weighed at set times over the 15-day period. The sterilized surgical material was used for the tissue extraction. […] Pancreases were also measured with a scale (cm) and pictures were taken. • Histology—Pancreas samples for histology were fixed in 4% paraformaldehyde in PBS at room temperature overnight. […] The lysates were clarified by centrifugation (18,000×g, 15 min, 4° C.), and the protein concentration was quantified by the Quantipro™ BCA assay kit (Sigma-Aldrich, St. Louis, MO, US). […]
EnVision™ peroxidase FLEX/HRP (Dako Agilent Technologies, Glostrup; DK) was employed as a detection system. […] Ki67 was analysed immunohistochemically. […] For Ki67 expression quantification in the samples, ten fields of the tumour representative DAB images were quantified by using the Fiji/Image J software.

For obestatin, the “diminution in the number of Ki67 positive cells” value is given as 56.0±5.2%.
